The target in this experiment is T1, Caspase-7 (Homo sapiens, UniProt P55210).
T1 sequence (P55210 whole entry): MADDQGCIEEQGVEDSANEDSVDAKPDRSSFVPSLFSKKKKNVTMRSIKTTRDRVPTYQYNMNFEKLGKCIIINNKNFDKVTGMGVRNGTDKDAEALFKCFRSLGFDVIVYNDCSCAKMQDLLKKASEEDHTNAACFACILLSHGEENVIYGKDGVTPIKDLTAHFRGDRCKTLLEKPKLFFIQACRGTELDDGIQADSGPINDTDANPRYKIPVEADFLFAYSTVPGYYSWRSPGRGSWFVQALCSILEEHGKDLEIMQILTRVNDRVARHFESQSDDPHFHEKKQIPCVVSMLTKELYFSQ
Nature of the experiment: procaspase-7 activators, dose response, counter-screen for procaspase-3 activator project, biochemical, absorbance (AID 489013).

Turning to `O=C(CC1=NC2(CCCC2)Cc2ccccc21)C(=O)NN=Cc1ccccc1O` [SMR000219463], the EC50 was greater than 85.3 µM.

For the compound `O=c1c2c(-c3ccccc3)[nH]n(-c3ccccc3)c-2c(O)n1-c1ccccc1` [SMR000269383], the concentration for a half-maximal effect (EC50) was greater than 85.3 µM.

As a reminder, the EC50 is the concentration needed to bring the measured effect to its halfway point. Higher therefore signals lower potency in that assay.

Source of the values: BindingDB's records for doi:10.7270/Q22V2DK6 (The Scripps Research Institute Molecular Screening Center, 2010).
